Experimental data from ChEMBL document CHEMBL1201862, “PubChem BioAssay data set” (2004).
Activity calls are given as the source filed them.

What was measured:
[1] = target: T1, Microphthalmia-associated transcription factor (Homo sapiens, UniProt O75030); experiment: reducers of TRPM1 reporter luminescence, concentration series – cell-based, SK-MEL-5, cherry-picked, set 3, MITF inhibitor project, dose response (AID 493073); type: functional;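 note: SK-MEL-5 melanoma cells with luciferase driven by the MITF target TRPM1 promoter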
T1 sequence (O75030 whole entry): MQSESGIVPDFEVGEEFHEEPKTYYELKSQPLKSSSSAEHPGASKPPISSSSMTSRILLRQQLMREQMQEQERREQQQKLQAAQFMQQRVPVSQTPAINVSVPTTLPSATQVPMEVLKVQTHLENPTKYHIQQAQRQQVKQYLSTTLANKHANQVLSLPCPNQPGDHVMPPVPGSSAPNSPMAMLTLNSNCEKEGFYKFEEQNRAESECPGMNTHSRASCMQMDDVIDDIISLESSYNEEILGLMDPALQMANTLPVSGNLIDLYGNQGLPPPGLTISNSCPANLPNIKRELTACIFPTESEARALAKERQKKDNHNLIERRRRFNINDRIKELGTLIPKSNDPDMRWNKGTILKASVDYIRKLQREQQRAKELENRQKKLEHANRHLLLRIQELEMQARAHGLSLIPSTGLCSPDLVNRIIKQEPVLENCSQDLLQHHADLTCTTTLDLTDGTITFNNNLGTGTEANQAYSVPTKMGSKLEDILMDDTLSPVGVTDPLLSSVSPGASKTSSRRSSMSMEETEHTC

[2] = target: T2, DNA repair and recombination protein RAD54-like (Homo sapiens, UniProt Q92698); experiment: RAD54 Holliday junction migration blockers – biochemical, fluorescence, cherry-picked samples, dose series, confirmation (AID 651657); type: functional
T2 sequence (Q92698 whole entry): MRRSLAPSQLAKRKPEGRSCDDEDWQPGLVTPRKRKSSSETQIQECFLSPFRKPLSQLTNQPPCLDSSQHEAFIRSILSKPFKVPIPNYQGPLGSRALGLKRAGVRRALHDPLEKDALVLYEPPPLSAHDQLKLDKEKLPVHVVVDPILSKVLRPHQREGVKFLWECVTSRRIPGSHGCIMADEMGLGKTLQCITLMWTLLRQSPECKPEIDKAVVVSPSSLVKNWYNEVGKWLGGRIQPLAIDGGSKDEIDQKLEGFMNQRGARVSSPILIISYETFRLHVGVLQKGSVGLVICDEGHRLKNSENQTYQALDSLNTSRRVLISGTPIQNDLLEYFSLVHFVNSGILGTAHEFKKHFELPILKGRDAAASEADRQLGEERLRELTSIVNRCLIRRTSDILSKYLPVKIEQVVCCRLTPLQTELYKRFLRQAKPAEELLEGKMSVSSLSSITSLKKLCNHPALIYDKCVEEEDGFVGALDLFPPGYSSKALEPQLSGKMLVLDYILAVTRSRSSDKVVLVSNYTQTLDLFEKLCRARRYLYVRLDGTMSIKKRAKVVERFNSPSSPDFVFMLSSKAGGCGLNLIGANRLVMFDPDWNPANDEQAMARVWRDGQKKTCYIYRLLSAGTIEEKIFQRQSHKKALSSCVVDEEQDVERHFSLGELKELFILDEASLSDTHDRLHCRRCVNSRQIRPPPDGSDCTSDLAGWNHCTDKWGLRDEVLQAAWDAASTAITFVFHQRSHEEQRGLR

[3] = target: T3, DNA repair protein RAD52 homolog (Homo sapiens, UniProt P43351); type: functional, biochemical
T3 sequence (P43351 whole entry): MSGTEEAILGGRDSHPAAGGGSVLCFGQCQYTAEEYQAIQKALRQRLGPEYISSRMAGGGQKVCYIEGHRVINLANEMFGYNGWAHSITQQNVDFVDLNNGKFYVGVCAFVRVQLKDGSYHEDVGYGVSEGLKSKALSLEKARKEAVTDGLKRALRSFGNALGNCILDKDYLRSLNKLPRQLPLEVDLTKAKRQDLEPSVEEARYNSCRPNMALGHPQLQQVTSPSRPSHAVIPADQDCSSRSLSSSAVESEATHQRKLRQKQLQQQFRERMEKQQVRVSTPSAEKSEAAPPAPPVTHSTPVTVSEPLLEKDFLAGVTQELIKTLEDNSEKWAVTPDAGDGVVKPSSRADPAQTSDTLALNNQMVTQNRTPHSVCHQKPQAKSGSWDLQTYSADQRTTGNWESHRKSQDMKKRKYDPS

[4] = target: DNA (cytosine-5)-methyltransferase 1 (Homo sapiens, UniProt P26358); experiment: inhibition of DNA methylation by DNMT1 – biochemical, fluorescent molecular beacon, confirmation (AID 602386); type: functional
[5] = target: T4, RNA-binding protein pos-1 (Caenorhabditis elegans, UniProt G5EF15); experiment: disruptors of C. elegans POS-1 RNA interaction – biochemical, fluorescence polarization, dose response (AID 1964);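 note: purified POS-1 fused to maltose binding protein made in E. coli; potency of compounds blocking POS-1 binding to fluorescent RNA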
T4 sequence (G5EF15 whole entry): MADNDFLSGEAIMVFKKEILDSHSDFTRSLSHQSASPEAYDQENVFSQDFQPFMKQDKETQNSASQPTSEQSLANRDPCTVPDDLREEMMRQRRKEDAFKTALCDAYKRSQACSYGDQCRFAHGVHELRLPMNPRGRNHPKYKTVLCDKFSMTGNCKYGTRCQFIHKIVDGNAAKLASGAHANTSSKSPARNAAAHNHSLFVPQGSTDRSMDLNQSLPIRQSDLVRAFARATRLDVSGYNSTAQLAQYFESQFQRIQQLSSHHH

[6] = target: T5, Rac GTPase-activating protein 1 (Homo sapiens, UniProt Q9H0H5); experiment: blockers of MgcRacGAP-driven Rac1 GTP hydrolysis – biochemical, ADP Hunter fluorescence, primary and confirmatory, confirmation (AID 624330); type: functional
T5 sequence (Q9H0H5 whole entry): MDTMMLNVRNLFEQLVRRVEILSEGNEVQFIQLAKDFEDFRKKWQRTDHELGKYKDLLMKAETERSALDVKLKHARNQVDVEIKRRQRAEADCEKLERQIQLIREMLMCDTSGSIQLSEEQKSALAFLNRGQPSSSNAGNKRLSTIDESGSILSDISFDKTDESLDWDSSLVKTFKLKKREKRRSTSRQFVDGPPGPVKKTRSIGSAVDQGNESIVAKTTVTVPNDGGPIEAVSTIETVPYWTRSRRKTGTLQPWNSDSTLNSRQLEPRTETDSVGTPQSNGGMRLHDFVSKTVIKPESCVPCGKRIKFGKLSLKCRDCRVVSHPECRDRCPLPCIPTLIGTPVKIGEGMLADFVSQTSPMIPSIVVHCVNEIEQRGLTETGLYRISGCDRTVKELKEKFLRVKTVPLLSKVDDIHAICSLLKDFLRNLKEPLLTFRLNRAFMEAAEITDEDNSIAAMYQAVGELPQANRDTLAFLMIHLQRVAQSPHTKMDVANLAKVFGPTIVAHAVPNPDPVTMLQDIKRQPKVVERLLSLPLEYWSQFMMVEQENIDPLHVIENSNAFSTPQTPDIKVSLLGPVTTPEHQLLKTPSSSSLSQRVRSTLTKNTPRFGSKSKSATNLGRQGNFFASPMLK

[7] = target: T6, Sentrin-specific protease 8 (Homo sapiens, UniProt Q96LD8); type: functional
T6 sequence (Q96LD8 whole entry): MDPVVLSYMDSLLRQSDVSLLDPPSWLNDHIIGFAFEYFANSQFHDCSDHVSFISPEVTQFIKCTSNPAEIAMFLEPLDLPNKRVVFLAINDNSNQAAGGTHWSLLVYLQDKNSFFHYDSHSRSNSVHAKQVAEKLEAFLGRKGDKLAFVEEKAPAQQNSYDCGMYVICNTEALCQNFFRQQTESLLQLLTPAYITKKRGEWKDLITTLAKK

[8] = target: T6, Sentrin-specific protease 8; type: functional; remark: listed apart in the source
[9] = viability loss in HeLa cells – cytotoxicity control for MgcRacGAP inhibitor project, dose response (AID 624300); type: functional
[10] = target: T7, Protein skinhead-1 (Caenorhabditis elegans, UniProt P34707); type: functional
T7 sequence (P34707 whole entry): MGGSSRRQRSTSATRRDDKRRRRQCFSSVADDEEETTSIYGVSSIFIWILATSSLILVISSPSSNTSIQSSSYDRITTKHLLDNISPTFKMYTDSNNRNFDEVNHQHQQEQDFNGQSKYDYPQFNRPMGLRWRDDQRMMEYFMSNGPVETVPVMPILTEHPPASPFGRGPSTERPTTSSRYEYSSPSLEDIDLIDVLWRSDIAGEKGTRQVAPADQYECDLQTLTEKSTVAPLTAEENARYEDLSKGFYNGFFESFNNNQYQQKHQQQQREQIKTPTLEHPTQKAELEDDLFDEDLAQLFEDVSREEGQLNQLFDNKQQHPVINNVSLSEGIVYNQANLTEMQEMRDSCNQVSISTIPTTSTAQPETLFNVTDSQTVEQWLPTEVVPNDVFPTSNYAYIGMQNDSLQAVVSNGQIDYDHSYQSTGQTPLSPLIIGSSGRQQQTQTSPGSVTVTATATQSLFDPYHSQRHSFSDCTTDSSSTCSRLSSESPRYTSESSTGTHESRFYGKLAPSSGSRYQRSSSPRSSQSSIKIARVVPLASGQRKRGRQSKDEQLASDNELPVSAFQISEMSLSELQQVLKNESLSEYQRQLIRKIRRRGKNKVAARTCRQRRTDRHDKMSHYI

[11] = target: T8, Low molecular weight phosphotyrosine protein phosphatase (Homo sapiens, UniProt P24666); type: functional; conditions: read-out: IC50_Mean;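 note: Dose-response confirmation assay measuring inhibition of LMPTP enzyme activity by fluorescence intensity read-out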
T8 sequence (P24666 whole entry): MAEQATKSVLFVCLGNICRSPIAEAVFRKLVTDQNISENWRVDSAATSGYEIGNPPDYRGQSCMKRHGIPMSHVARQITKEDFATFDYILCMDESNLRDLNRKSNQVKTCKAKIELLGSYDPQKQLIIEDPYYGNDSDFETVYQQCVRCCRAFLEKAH

[12] = target: Cytochrome P450 3A4 (Homo sapiens, UniProt P08684);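 note: CYP3A4 tested as one member of a cytochrome P450 panel screen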
[13] = HIV-1 Vif–A3G interaction blockers – biochemical, TR-FRET, GST-Vif 1-94, biotin-A3G peptide, dose response retest, primary screen (AID 1117319); type: functional;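 note: TR-FRET signal of purified GST-Vif binding a biotinylated A3G peptide; inhibitors lower the FRET signal by blocking Vif and A3G binding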
[14] = target: T9, Hepatocyte nuclear factor 4-alpha (Homo sapiens, UniProt P41235); type: functional, cell-based;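 note: biochemical luminescence-based dose-response counterscreen measuring inhibition of HNF4 dimerization, run alongside a screen for blockers of ABHD5–perilipin-5 interaction; split luciferase complementation of HNF4 fusion proteins in cell lysate measuring dimerization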
T9 sequence (P41235 whole entry): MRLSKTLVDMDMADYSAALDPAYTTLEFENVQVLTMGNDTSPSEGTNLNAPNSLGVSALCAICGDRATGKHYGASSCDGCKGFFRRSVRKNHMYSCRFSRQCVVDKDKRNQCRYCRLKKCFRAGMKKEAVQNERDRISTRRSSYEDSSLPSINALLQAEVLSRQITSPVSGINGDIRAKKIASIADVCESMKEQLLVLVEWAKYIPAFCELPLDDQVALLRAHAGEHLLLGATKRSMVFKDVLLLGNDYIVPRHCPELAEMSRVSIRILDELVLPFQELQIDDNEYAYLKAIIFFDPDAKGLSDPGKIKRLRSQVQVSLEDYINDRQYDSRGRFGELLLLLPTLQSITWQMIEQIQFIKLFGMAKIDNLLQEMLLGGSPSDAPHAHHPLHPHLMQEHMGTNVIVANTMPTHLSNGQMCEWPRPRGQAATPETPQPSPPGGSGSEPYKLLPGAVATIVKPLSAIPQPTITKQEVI

[15] = general mammalian cell viability loss – activator set, cherry-pick, cytotoxicity control for miR-122 modulator project, dose response (AID 720690); type: functional, cell-based;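 note: HEK293T human cells scored for general mammalian cytotoxicity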
[16] = activation of miR-122 Renilla sensor silencing – cell-based, Huh7 psiCHECK-miR122, Renilla luciferase, cherry-picked, dose response (AID 651956); type: functional;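 note: huh7 hepatoma cells stably carrying a psiCHECK-2 miR-122 sensor plasmid; renilla luciferase signal reporting endogenous miR-122 activity after 48 h compound exposure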

DNA (cytosine-5)-methyltransferase 1, sequence (P26358 whole entry, the tested form may be a part): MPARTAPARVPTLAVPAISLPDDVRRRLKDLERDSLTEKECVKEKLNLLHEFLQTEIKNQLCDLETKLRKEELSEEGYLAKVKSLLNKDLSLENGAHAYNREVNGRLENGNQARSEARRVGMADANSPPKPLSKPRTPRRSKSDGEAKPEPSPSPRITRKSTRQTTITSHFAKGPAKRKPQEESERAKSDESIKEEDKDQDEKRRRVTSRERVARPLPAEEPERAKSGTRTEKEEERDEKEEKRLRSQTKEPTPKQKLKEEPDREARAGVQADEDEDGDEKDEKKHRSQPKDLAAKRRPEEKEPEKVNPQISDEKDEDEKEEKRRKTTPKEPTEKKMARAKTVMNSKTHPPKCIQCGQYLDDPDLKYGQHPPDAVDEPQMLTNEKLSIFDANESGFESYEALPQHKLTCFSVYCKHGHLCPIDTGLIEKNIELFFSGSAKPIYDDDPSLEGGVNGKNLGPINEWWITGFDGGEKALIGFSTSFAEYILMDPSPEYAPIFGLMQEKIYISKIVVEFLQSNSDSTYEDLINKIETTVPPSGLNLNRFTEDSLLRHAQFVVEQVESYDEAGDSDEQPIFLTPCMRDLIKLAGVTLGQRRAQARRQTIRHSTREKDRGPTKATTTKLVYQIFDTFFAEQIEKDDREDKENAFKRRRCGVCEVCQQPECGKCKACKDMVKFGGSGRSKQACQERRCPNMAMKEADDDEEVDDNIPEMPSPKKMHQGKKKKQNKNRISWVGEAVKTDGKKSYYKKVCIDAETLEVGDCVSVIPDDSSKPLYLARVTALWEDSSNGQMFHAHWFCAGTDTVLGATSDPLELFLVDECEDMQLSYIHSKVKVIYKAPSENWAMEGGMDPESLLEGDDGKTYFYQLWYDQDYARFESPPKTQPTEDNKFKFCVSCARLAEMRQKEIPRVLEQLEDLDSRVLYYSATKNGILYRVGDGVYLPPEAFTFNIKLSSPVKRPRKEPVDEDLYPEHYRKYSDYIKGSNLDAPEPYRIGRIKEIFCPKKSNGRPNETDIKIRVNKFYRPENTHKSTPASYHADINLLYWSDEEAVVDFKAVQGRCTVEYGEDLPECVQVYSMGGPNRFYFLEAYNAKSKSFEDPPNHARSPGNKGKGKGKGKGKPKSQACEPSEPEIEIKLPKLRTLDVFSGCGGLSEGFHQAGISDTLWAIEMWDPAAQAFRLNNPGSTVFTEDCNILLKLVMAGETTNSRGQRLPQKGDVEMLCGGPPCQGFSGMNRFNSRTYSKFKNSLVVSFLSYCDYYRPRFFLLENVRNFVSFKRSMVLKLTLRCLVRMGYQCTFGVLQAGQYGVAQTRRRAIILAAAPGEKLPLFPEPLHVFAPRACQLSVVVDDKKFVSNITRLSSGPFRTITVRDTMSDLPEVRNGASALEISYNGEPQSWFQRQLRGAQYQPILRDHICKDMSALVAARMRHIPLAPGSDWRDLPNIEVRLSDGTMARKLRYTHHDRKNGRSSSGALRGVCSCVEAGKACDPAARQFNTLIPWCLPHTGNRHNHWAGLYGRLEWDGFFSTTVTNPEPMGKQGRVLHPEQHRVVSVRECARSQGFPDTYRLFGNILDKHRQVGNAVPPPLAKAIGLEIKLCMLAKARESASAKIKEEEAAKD
Cytochrome P450 3A4, sequence (P08684 whole entry): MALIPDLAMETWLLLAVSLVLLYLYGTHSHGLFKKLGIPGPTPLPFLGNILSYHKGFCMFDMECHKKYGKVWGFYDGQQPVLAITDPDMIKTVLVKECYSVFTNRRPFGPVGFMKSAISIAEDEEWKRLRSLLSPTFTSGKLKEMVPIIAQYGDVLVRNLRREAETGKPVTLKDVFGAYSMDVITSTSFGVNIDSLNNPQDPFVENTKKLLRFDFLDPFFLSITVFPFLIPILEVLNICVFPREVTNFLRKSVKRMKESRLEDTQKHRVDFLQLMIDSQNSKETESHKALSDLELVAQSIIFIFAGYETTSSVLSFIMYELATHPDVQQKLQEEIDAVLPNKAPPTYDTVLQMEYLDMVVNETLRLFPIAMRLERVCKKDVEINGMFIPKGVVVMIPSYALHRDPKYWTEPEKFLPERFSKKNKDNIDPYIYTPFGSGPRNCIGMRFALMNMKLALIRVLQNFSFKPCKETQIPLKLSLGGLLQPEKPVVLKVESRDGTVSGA

With `Cc1ccc(-c2nc(C(=O)NCCCN(C)C)cc3c2[nH]c2ccccc23)cc1` the AC50 [1] was 11.2 µM (active), the AC50 [2] was 10.9 µM (active) and the AC50 [3] was 2.77 µM (active).

With `O=C1NC(=S)N(c2ccccc2)C(=O)/C1=C/c1ccco1` the IC50 [4] was 811 nM (active), the EC50 [5] was 32.7 µM (active) and the IC50 [6] was 8.35 µM (active).

With `O=C(O)/C=C/C(=O)Nc1ccc(O)cc1` the IC50 [7] was 10.6 µM (active) and the IC50 [8] was 16.2 µM (active).

For `c1ccc(Nc2cc(Nc3ccccc3)[nH]n2)cc1`, the CC50 [9] was 100 µM (active) and the IC50 [6] was 50.9 µM (active).

For `CC1CCCCN1Cc1c(O)ccc2c(O)c(-c3nc4ccccc4s3)c(=N)oc12` (stereo unspecified), the IC50 [10] was 4.74 µM (active) and the CC50 [9] was 93.1 µM (active).

For `N=c1c(C(=O)NCc2ccco2)cc2c(=O)n3ccccc3nc2n1Cc1ccccc1`, the IC50 [11] was 28.4 µM (inactive).

With `CN1CCN(c2nc(-c3cccnc3)nc3ccccc23)CC1` the AC50 [12] was 25.1 µM (inconclusive), the IC50 [13] was > 100 µM (active) and the AC50 [2] was 21.1 µM (active).

For `Cc1cccc(C)c1OCc1cn(CC(=O)c2ccc(O)cc2)nn1`, the IC50 [14] was 4.78 µM (active).

In the case of `C[C@H]1CN([C@@H](C)CO)C(=O)c2cc(NC(=O)Nc3ccc(C(F)(F)F)cc3)ccc2O[C@H]1CN(C)CC1CCCCC1`, the AC50 [15] is reported as 18.7 µM (active) and the AC50 [16] is reported as 8.8 µM (active).

In the case of `CCCCCNC(=O)C(c1ccc(OC)cc1)n1c(=O)c(-c2ccco2)nc2ccccc21` (stereo unspecified), the IC50 [14] is reported as 3.07 µM (active).

In the case of `O=c1cc(CN2CCCCCCC2)c2ccccc2o1`, the IC50 [11] is reported as 41.5 µM (inactive).
